# Reference: US10191062B2, “Model gut system” (priority 2013, dated 2019)
# Legend:
# [1] = fatty acid released from the triglyceride substrate; cited from earlier work
# lipase = experiment: Glyceryl trioctanoate digestion in the model gut system (MGS), glycerol release; assay type: biochemical, porcine; conditions: 2 mmol glyceryl trioctanoate; Orlistat at 2.5, 5 and 10 mg vs control digestion; FIG. 6
# Protocol: Fresh porcine bile was extracted from fresh procine gall bladders (collected on ice from abattoir). Approximately 50 gall bladders were collected per batch. The collected bile was pooled, mixed and frozen down in 25 ml aliquots for storage, as 25 ml is required for each replicate.
# Glyceryl trioctanoate was used as the tryglyceride substrate for all assays of fat digestion reported herein. In these experiments, 2 mmol (0.94136 g) of glyceryl trioctanoate was added to the synthetic saliva preparations at T[−10] wherein T[−10] means 10 minutes prior to addition of the synthetic saliva to the test system.
# At T[−10], salivary preparations containing substrate/sample/controls were prepared as indicated hereinbefore and incubated for 10 minutes on rollers. […]
# In all the experiments, data samples of 0.5 ml were taken at T0, T5, T10, T15, T30, T45, T60, T60^B, T65, T70, T75, T90, T105, T120, T150 and T180, wherein (T60^B) represents a second sample at T60 which was taken after the addition of fresh porcine bile. […] The test samples were stored at 4° C. overnight to allow for precipitation and then centrifuged at 10,000 r.p.m. for 10 minutes, after which the supernatant was analysed. […]
# Triglyceride digestion can be measured using ZenBio Glycerol Reagent A to quantify the release of glycerol. A 5 μl of sample was incubated with 80 μl Reagent A for 30 minutes and colour development was measured at 550 nm. […]
SMILES,pKa [1],total glycerol recovered from the model gut system after TCA precipitation (lipase)
CCCCCCCC/C=C\CCCCCCCC(=O)O [Oleic Acid],9.95,–
CCCCCCCCCCC[C@@H](C[C@@H]1OC(=O)[C@H]1CCCCCC)OC(=O)[C@H](CC(C)C)NC=O [Orlistat],–,varies in accordance with the level of Orlistat
CCCCCCCCCCCCCCCC(=O)O [Palmitic Acid],9.7,–
CCCCCCCCCCCCCCCCCC(=O)O [Stearic Acid],10.15,–
CCCC(=O)O [Butyric Acid],4.84,–
